According to patent US8648071B2, “Hydrazonamide compounds that modulate Hsp90 activity” (Synta Pharmaceuticals Corp., priority 2008, dated 2014):

Tested on: Her2
Assay: Degradation of Her2 in BT-474 cells, Western blot (Method 1)
Assay type: cell-based, human
Conditions: 0.5 μM, overnight
Method: Human high-Her2 breast carcinoma BT474 (HTB-20), SK-BR-3 (HTB-30) and MCF-7 breast carcinoma (HTB-22) from American Type Culture Collection, VA, USA were grown in Dulbecco's modified Eagle's medium with 4 mM L-glutamine and antibiotics (100 IU/ml penicillin and 100 μg/ml streptomycine; GibcoBRL). To obtain exponential cell growth, cells were trypsinized, counted and seeded at a cell density of 0.5×10^6 cells/ml regularly, every 3 days. All, experiments were performed on day 1 after cell passage.
BT-474 cells are treated with 0.5 μM, 2 μM, or 5 μM of 17AAG (a positive control) or 0.5 μM, 2 μM, or 5 μM of a compound of the invention overnight in DMEM medium. After treatment, each cytoplasmic sample is prepared from 1×10^6 cells by incubation of cell lysis buffer (#9803, Cell Signaling Technology) on ice for 10 minutes. The resulting supernatant used as the cytosol fractions is dissolved with sample buffer for SDS-PAGE and run on a SDS-PAGE gel, blotted onto a nitrocellulose membrane by using semi-dry transfer. Non-specific binding to nitrocellulose is blocked with 5% skim milk in TBS with 0.5% Tween at room temperature for 1 hour, then probed with anti-Her2/ErB2 mAb (rabbit IgG, #2242, Cell Signaling) and anti-Tubulin (T9026, Sigma) as housekeeping control protein. […]

With C=CCNC1=C2C[C@@H](C)C[C@H](OC)[C@H](O)[C@@H](C)/C=C(\C)[C@H](OC(N)=O)[C@@H](OC)/C=C\C=C(/C)C(=O)NC(=CC1=O)C2=O [Compound 17AAG, 17-allylamino-17-demethoxygeldanamycin] the “degradation of Her2” value was “partial degradation of Her2”.
